Source: patent US7390806B2, “Antibiotics containing borinic acid complexes and methods of use” (Anacor Pharmaceuticals, Inc., priority 2002, dated 2008)
Values after ≈ are worked out from the molar mass of the structure shown.

Columns and labels:
[1] = test system: S. epidermidis ATCC 12228; experiment: MIC determination, S. epidermidis ATCC 12228; assay type: cell-based, Staphylococcus epidermidis; conditions: for MIC S. epidermidis ATCC 12228: Table 1; for MIC: Staphylococcus epidermidis, ATCC12228, Table 1, read-out: MIC S. epidermidis ATCC 12228
[2] = test system: S. pneumoniae ATCC 6301; experiment: MIC determination, S. pneumoniae ATCC 6301; assay type: cell-based, Streptococcus pneumoniae; conditions: for MIC S. pneumoniae ATCC 6301: Table 1; for MIC: Streptococcus pneumoniae, ATCC6301, Table 1, read-out: MIC S. pneumoniae ATCC 6301
[3] = test system: M. catarrhalis ATCC 25238; experiment: MIC determination, M. catarrhalis ATCC 25238; assay type: cell-based; conditions: for MIC M. catarrhalis ATCC 25238: Table 1
[4] = test system: S. aureus ATCC 29213; experiment: MIC determination, S. aureus ATCC 29213; assay type: cell-based, Staphylococcus aureus; conditions: Table 1
[5] = test system: E. faecalis ATCC 29212; experiment: MIC determination, E. faecalis ATCC 29212; assay type: cell-based, Enterococcus faecalis; conditions: for MIC E. faecalis ATCC 29212: Table 1
[6] = test system: E. faecium CT-26; experiment: MIC determination, E. faecium CT-26; assay type: cell-based, Enterococcus faecium; conditions: for MIC E. faecium CT-26: Table 1; for MIC: Enterococcus faecium, CT26, Table 1, read-out: MIC E. faecium CT-26

MIC [1] [µg/mL]	MIC [2] [µg/mL]	MIC ([5]; Enterococcus faecalis, ATCC29212, Table 1, read-out: MIC E. faecalis ATCC 29212) [µg/mL]	MIC [6] [µg/mL]	MIC ([3]; Moraxella catarrhalis, ATCC25238, Table 1, read-out: MIC M. catarrhalis ATCC 25238) [µg/mL]	SMILES	MIC S. epidermidis ATCC 12228 [1] [micrograms per ml]	MIC S. pneumoniae ATCC 6301 [2] [micrograms per ml]	MIC M. catarrhalis ATCC 25238 [3] [micrograms per ml]	MIC S. aureus ATCC 29213 [4] [micrograms per ml]	MIC E. faecalis ATCC 29212 [5] [micrograms per ml]	MIC E. faecium CT-26 [6] [micrograms per ml]
					Oc1cccc2cccnc12 [Compound 85, 8-hydroxyquinoline]	1	2	2	2	4	4
					Oc1cccc2cccnc12 [Compound 73, 8-hydroxyquinoline]	1	2	0.25	2	64	8
					C=CB(Oc1cccc2cccnc12)c1cccc(C#N)c1 [Compound 40, (3-Cyanophenyl)vinylborinic acid 8-hydroxyquinoline ester]	1	1	2	1	8	2
					Oc1cccc2cccnc12 [Compound 97, 8-hydroxyquinoline]	1	1	1	2	8	2
					Oc1cccc2cccnc12 [Compound 28, 8-hydroxyquinoline]	1	2	1	0.5	4	2
					Oc1cccc2cccnc12 [Compound 54, 8-hydroxyquinoline]	1	2	1	2	8	4
					Oc1ccc(Cl)c2cccnc12 [Compound 49]	1	1	0.25	2	16	2
					Oc1cccc2cccnc12 [Compound 60, 8-hydroxyquinoline]	1	2	2	2	8	4
					Oc1cccc2cccnc12 [Compound 88, 8-hydroxyquinoline]	2	2	2	2	8	2
2 (≈ 12.3 µM)	2 (≈ 12.3 µM)	8 (≈ 49 µM)	4 (≈ 24.5 µM)		Oc1ccc(F)c2cccnc12 [Compound 12]			2	0.125		
					Oc1ccc(F)c2cccnc12 [Compound 57]	2	4	1	2	16	4
					Oc1ccc(F)c2cccnc12 [Compound 34]	2	2	1	1	8	4
					Oc1ccc(F)c2cccnc12 [Compound 62]	2	2	2	2	8	4
					Oc1ccc(F)c2cccnc12 [Compound 58]	2	2	0.5	2	8	4
					Oc1cccc2cccnc12 [Compound 56, 8-hydroxyquinoline]	2	2	4	2	8	4
					Oc1cccc2cccnc12 [Compound 90, 8-hydroxyquinoline]	2	1	2	2	8	2
					Oc1cccc2cccnc12 [Compound 42, 8-hydroxyquinoline]	1	1	1	1	8	2
					Fc1cccc(B(Oc2cccc3cccnc23)C2CC2)c1 [Compound 70, (3-Fluorophenyl)cyclopropylborinic acid 8-hydroxyquinoline ester]	1	1	0.5	2	64	2
					Oc1cccc2cccnc12 [Compound 98, 8-hydroxyquinoline]	1	1	1	2	8	4
					Oc1cccc2cccnc12 [Compound 69, 8-hydroxyquinoline]	1	2	1	2	64	4
					Oc1ccc(F)c2cccnc12 [Compound 64]	2	4	1	2	8	8
					Oc1cccc2cccnc12 [Compound 39, 8-hydroxyquinoline]	1	1	2	1	8	2
					Oc1cccc2cccnc12 [Compound 83, 8-hydroxyquinoline]	1	2	2	2	4	4
1 (≈ 5.57 µM)	1 (≈ 5.57 µM)		2 (≈ 11.1 µM)	0.25 (≈ 1.39 µM)	Oc1ccc(Cl)c2cccnc12 [Compound 13]				0.125	64	
					Oc1cccc2cccnc12 [Compound 38, 8-hydroxyquinoline]	1	2	1	1	16	2
					Oc1cccc2cccnc12 [Compound 46, 8-hydroxyquinoline]	1	1	1	1	4	1
